Measured values published in patent publication US11104674B2 (Hoffmann-La Roche Inc., priority 2016, dated 2021).

test system: HBsAg; assay: HBsAg assay (chemiluminescence immunoassay of secreted HBsAg); assay type: cell-based, HBV; conditions: Hepatitis B virus, HepG2.2.15, HBsAg secretion, HepG2.2.15 cells, CLIA of culture supernatant
Experimental: HepG2.2.15 cells (Acs et al. Proc Natl Acad Sci USA, 84, (1987), 4641-4), a constitutively HBV-expressing cell line were cultured in DMEM+Glutamax-I medium (Invitrogen, Carlsbad, Calif., USA), supplemented with 10% fetal bovine serum (Invitrogen) and G418 (Invitrogen) at a final concentration of 200 mg/L and maintained in 5% CO2 at 37° C.
HepG2.2.15 cells were seeded in duplicate into white, 96-well plates at 1.5×10^4 cells/well. The cells were treated with a three-fold serial dilution series of the compounds in DMSO. The final DMSO concentration in all wells was 1% and DMSO was used as no drug control.
The HBsAg chemiluminescence immunoassay (CLIA) kit (Autobio Diagnostics Co., Zhengzhou, China, Catalog number: CL0310-2) was used to measure the levels of secreted HBV antigens semi-quantitatively. For the detection 50 μL/well culture supernatant was used and HBsAg was quantified using HBsAg chemiluminescence immunoassay (CLIA) kit (Autobio Diagnostics Co., Zhengzhou, China, Catalog number: CL0310-2), 50 μL of the supernatant was transferred to the CLIA assay plate and 50 μL of enzyme conjugate reagent was added into each well. The plates were sealed and gently agitated for 1 hour at room temperature. The supernatant-enzyme-mixture was discarded and wells were washed 6 times with 300 μL of PBS.
The residual liquid was removed by plating the CLIA plate right side down on absorbent tissue paper. 25 μL of substrates A and B were added to each well. Luminance was measured using a luminometer (Mithras LB 940 Multimode Microplate Reader) after 10 minutes incubation. Dose-response curves were generated and the IC50 value was extrapolated by using the E-WorkBook Suite (ID Business Solutions Ltd., Guildford, UK). The IC50 was defined as the compound concentration (or conditioned media log dilution) at which HBsAg secretion was reduced by 50% compared to the no drug control.
The compounds according to formula I were tested for their capacity to inhibit HBsAg as described herein.

**Q.** CC1c2cnc(-c3ncccn3)nc2CCN1c1cc(N2CC(C(=O)O)C2)cc(F)n1 (stereo not drawn) [Example 54, 1-[2-fluoro-6-(5-methyl-2-pyrimidin-2-yl-7,8-dihydro-5H-pyrido[4,3-d]pyrimidin-6-yl)-4-pyridyl]azetidine-3-carboxylic acid] was tested. Which IC50 did it give?
**A.** 6.34 µM

**Q.** How did the IC50 turn out when CC1c2cnc(-c3ncccn3)nc2CCN1c1cc(F)cc(N2CCC(C(N)=O)CC2)n1 (stereo not drawn) [Example 55, 1-[4-fluoro-6-(5-methyl-2-pyrimidin-2-yl-7,8-dihydro-5H-pyrido[4,3-d]pyrimidin-6-yl)-2-pyridyl]piperidine-4-carboxamide] was run?
**A.** 0.072 µM

**Q.** With CC1c2cnc(-c3ncccn3)nc2CCN1c1cc(N2CCC(C(N)=O)CC2)cc(F)n1 (stereo not drawn) [Example 56, 1-[2-fluoro-6-(5-methyl-2-pyrimidin-2-yl-7,8-dihydro-5H-pyrido[4,3-d]pyrimidin-6-yl)-4-pyridyl]piperidine-4-carboxamide] as the compound, how does the IC50 read?
**A.** 0.037 µM

**Q.** CC1c2cnc(-c3ncccn3)nc2CCN1c1cc(F)cc(N2CCN(S(C)(=O)=O)CC2)n1 (stereo not drawn) [Example 57, 6-[4-fluoro-6-(4-methylsulfonylpiperazin-1-yl)-2-pyridyl]-5-methyl-2-pyrimidin-2-yl-7,8-dihydro-5H-pyrido[4,3-d]pyrimidine] was tested. Which IC50 did it give?
**A.** 0.028 µM

**Q.** How did the IC50 turn out when CC1c2cnc(-c3ncccn3)nc2CCN1c1cc(N2CCN(S(C)(=O)=O)CC2)cc(F)n1 (stereo not drawn) [Example 58, 6-[6-fluoro-4-(4-methylsulfonylpiperazin-1-yl)-2-pyridyl]-5-methyl-2-pyrimidin-2-yl-7,8-dihydro-5H-pyrido[4,3-d]pyrimidine] was run?
**A.** 0.015 µM

**Q.** For CC1c2cnc(-c3ccccn3)nc2CCN1c1cc(F)cc(N2CCC(O)C2)n1 (stereo not drawn) [Example 59, 1-[4-fluoro-6-[5-methyl-2-(2-pyridyl)-7,8-dihydro-5H-pyrido[4,3-d]pyrimidin-6-yl]-2-pyridyl]pyrrolidin-3-ol], which IC50 is on record?
**A.** 0.026 µM

**Q.** Which IC50 does the source give for CC1c2cnc(-c3ccccn3)nc2CCN1c1cc(N2CCC(O)C2)cc(F)n1 (stereo not drawn) [Example 60, 1-[2-fluoro-6-[5-methyl-2-(2-pyridyl)-7,8-dihydro-5H-pyrido[4,3-d]pyrimidin-6-yl]-4-pyridyl]pyrrolidin-3-ol] here?
**A.** 0.023 µM

**Q.** With CC1c2cnc(-c3ccccn3)nc2CCN1c1cc(F)cc(N2CCC(C(N)=O)C2)n1 (stereo not drawn) [Example 61, 1-[4-fluoro-6-[5-methyl-2-(2-pyridyl)-7,8-dihydro-5H-pyrido[4,3-d]pyrimidin-6-yl]-2-pyridyl]pyrrolidine-3-carboxamide] as the compound, how does the IC50 read?
**A.** 0.022 µM

**Q.** How did the IC50 turn out when CC1c2cnc(-c3ccccn3)nc2CCN1c1cc(N2CCC(C(N)=O)C2)cc(F)n1 (stereo not drawn) [Example 62, 1-[2-fluoro-6-[5-methyl-2-(2-pyridyl)-7,8-dihydro-5H-pyrido[4,3-d]pyrimidin-6-yl]-4-pyridyl]pyrrolidine-3-carboxamide] was run?
**A.** 0.035 µM

**Q.** How did the IC50 turn out when CC1c2cnc(-c3ncccn3)nc2CCN1c1cc(F)cc(N2CC(C(=O)NS(C)(=O)=O)C2)n1 (stereo not drawn) [Example 63, 1-[4-fluoro-6-(5-methyl-2-pyrimidin-2-yl-7,8-dihydro-5H-pyrido[4,3-d]pyrimidin-6-yl)-2-pyridyl]-N-methylsulfonyl-azetidine-3-carboxamide] was run?
**A.** 5.42 µM

**Q.** For CC1c2cnc(-c3ncccn3)nc2CCN1c1cc(N2CC(C(=O)NS(C)(=O)=O)C2)cc(F)n1 (stereo not drawn) [Example 64, 1-[2-fluoro-6-(5-methyl-2-pyrimidin-2-yl-7,8-dihydro-5H-pyrido[4,3-d]pyrimidin-6-yl)-4-pyridyl]-N-methylsulfonyl-azetidine-3-carboxamide], which IC50 is on record?
**A.** 2.38 µM

**Q.** CC1c2cnc(-c3ncccn3)nc2CCN1c1cc(F)cc(N2CCC(C(=O)NS(C)(=O)=O)CC2)n1 (stereo not drawn) [Example 65, 1-[4-fluoro-6-(5-methyl-2-pyrimidin-2-yl-7,8-dihydro-5H-pyrido[4,3-d]pyrimidin-6-yl)-2-pyridyl]-N-methylsulfonyl-piperidine-4-carboxamide] was tested. Which IC50 did it give?
**A.** 4.44 µM
